Data as given in paper PMC8457007 (RNA, 2021).

Biological target: CPSF73 (Homo sapiens, UniProt Q9UKF6)
Assay: gel-based end-point fluorescence nuclease assay with reconstituted U7 machinery
Assay type: biochemical

IC50: 850 nM
Structure (SMILES): O=C(O)CCc1cccc2c1B(O)OC2 [AN3661]
